{"source": "patent US20250250300A1", "about": "“COMPOSITIONS AND METHODS FOR TREATING PSEUDOMYXOMA PERITONEI” (UNIVERSITY OF SOUTH CAROLINA, priority 2024, published 2025)", "key": {"PMP501-1 cells [1]": {"test_system": "PMP501-1 cells", "test": "cell viability assay (crystal violet), PMP501-1", "assay_type": "cell-based, human", "settings": "for stimulation of proliferation: 33.3 μM (for 3)", "description": "(§1) To evaluate whether myxomapeptin is the major contributor to the PMP inhibition, 2 were assayed against two PMP cell lines (PMP501-1 and ABX023-1), human colorectal adenocarcinoma cells (HT-29), and human fetal intestinal epithelial cells (FHC) using crystal violet cell viability assay.\n(§2) Next, the modulatory effect of 3 and 4 on PMP, HT-29 and FHC cells was evaluated. […] Subsequently, the effect of 3 and 4 on the mitochondrial respiration of ABX023-1 cells was measure in the seahorse mitochondrial stress assay."}, "ABX023-1 cells [2]": {"test_system": "ABX023-1 cells", "test": "crystal violet cell viability assay, ABX023-1", "assay_type": "cell-based, human", "settings": "for stimulation of proliferation: 33.3 μM (for 3)", "description": "as §1, §2"}, "[3]": {"test_system": "human colorectal adenocarcinoma cells (HT-29)", "test": "cell viability assay (crystal violet), HT-29", "assay_type": "cell-based", "settings": "for effect on proliferation: 33.3 μM (for 3)", "description": "as §1, §2"}, "[4]": {"test_system": "human fetal intestinal epithelial cells (FHC)", "test": "crystal violet cell viability assay, FHC", "assay_type": "cell-based", "settings": "for effect on proliferation: 33.3 μM (for 3)", "description": "as §1, §2"}, "PMP501-1 cells [5]": {"test_system": "PMP501-1 cells", "test": "seahorse mitochondrial stress assay, PMP501-1", "assay_type": "cell-based, human", "settings": "PMP501-1, normalized per 1,000 cells", "description": "(§3) FIG. 3B depicts seahorse mitochondrial stress assay of 2 and 5-FU (positive control) toward PMP501-1cell lines, from which the normalized oxygen consumption rate (OCR) and normalized extracellular acidification rate (ECAR) were measured. The OCR was measured at baseline and in response to sequential injections of oligomycin (O), carbonyl cyanide-p-trifluoromethoxyphenyl-hydrazon (FCCP), and rotenone with antimycin (RA).\n(§4) As tumor cells requires larger energy supply that relies on mitochondrial respiration and glycolysis, we sought to explore the effect of myxomapeptins on PMP cell energy metabolism using seahorse mitochondrial stress assay. The normalized oxygen consumption rate (OCR; proportional to mitochondrial respiration) and normalized extracellular acidification rate (ECAR; proportional to glycolysis) were measured for PMP501-1 cells and FHC in the presence of 2, 5-fluorouracil (5-FU) or vehicle."}, "FHC cells [6]": {"test_system": "FHC cells", "test": "seahorse mitochondrial stress assay, FHC", "assay_type": "cell-based, human", "settings": "for mitochondrial respiration (normalized OCR and ECAR): normalized per 1,000 cells", "description": "as §3, with “3C” for “3B”, “FHC cell” for “PMP501-1cell”\nas §4, §2"}, "PMP501-1 cells [7]": {"test_system": "PMP501-1 cells", "test": "cell uptake, LCMS of cell lysate, PMP501-1", "assay_type": "cell-based, human", "settings": "for ratio of compound in cell lysis versus control extracts: PMP501-1, compound fed, 5 days of incubation", "source_text": "(§5) Due to the inability of entering target cells passively, most cyclic lipopeptides are reported to perform biological functions by disrupting cell wall biosynthesis or the integrity of cell membranes. Given that myxomapeptins influence mitochondrial respiration and glycolysis, which occur in the cytoplasm, without wishing to be bound by theory, it was hypothesized that myxomapeptins are likely able to enter PMP cells. To this end, 2 was fed into the cultures of PMP501-1, ABX023-1, HT-29 and FHC cells with normalized cell density. After 5 days of incubation and a thorough wash, the cells were lysed and extracted by butanol for LCMS analysis. By calculating the ratio of 2 in cell lysis versus control extracts, 18.9% and 26.7% of 2 were found in the lysates of PMP501-1 and ABX023-1, whereas only 6.1% and 4.1% were detected from the lysates of HT-29 and FHC, respectively (FIG. 3A).\n(§6) Next, to study the percentage of myxomapeptins contributed by the intracellular PMP498-3 in light of the presence of PMP498-3 bacteria inside the PMP cells, the bacteria was co-cultured with the cell lines tested above."}, "ABX023-1 cells [8]": {"test_system": "ABX023-1 cells", "test": "cell uptake, LCMS of cell lysate, ABX023-1", "assay_type": "cell-based, human", "settings": "for ratio of compound in cell lysis versus control extracts: ABX023-1, compound fed, 5 days of incubation", "source_text": "as §5, §6"}, "HT-29 cells [9]": {"test_system": "HT-29 cells", "test": "cell uptake, LCMS of cell lysate, HT-29", "assay_type": "cell-based, human", "settings": "HT-29, compound fed, 5 days of incubation", "source_text": "as §5"}, "FHC cells [10]": {"test_system": "FHC cells", "test": "cell uptake, LCMS of cell lysate, FHC", "assay_type": "cell-based, human", "settings": "compound fed, 5 days of incubation", "source_text": "as §5"}, "[11]": {"test": "antimicrobial activity test", "assay_type": "cell-based", "settings": "64 μg/mL", "description": "Next, the absolute configuration of amino acid residues in 1 and 2 were determined by advanced Marfey's analysis after acid hydrolysis. After derivatization with (L)-and (D)-1-fluoro-2-4-dinitrophenyl-5-L-alanine amide (FDAA), the acid hydrolysate of 1 and 2 together with amino acid standards were analyzed by LCMS. […] Besides, the analysis allowed assignment of non-canonical amino acids as (2S,3R)-MeDap, (2R,4S)—Y—OH-Gln and (2S,3R)-B-Me-Glu in the structures of 1 and 2. Thus, the structures inclusive of absolute configuration of 1 and 2 are unambiguously assigned (FIG. 2C), and were named myxomapeptins A and B based on the source of the producing strain. Myxomapeptins are a new class of depsi cyclic lipopeptide consisting of eight amino acid residues that features N-methylation, C-methylation and hydroxylation, and a-proton epimerization."}, "[12]": {"settings": "reported; cited from earlier work"}, "ABX023-1 cells [13]": {"test_system": "ABX023-1 cells", "test": "seahorse mitochondrial stress assay, ABX023-1", "assay_type": "cell-based, human", "settings": "15 μM (for 3), after FCCP supplementation", "description": "as §3, with “4C” for “3B”, “3” for “2”, “4” for “5-FU (positive control)”, “ABX023-1 cell” for “PMP501-1cell”\nas §2"}, "HT-29 cells [14]": {"test_system": "HT-29 cells", "test": "seahorse mitochondrial stress assay, HT-29", "assay_type": "cell-based, human"}}, "note": "pIC50: −log10 of the molar value. *1 amine or outer side, *2 acyl side, *3 side chain or, on linkers, in order; H or OH if unused. Where a SMILES comes first, the peptide text is derived from it. Bridges are numbered along the chain shown (N, C = ends). [ ]: non-standard residue; d: D form. The star is where a group is joined. X2 = NC(=O)C[C@@H](O)[C@@H](N[*:1])C(=O)[*:2]; d(aThr) = C[C@@H](O)[C@@H](N)C(=O)O; NMeF = CN[C@@H](Cc1ccccc1)C(=O)O; X1 = CC[C@@H](C)CCCCCCCCCCC(=O)*; dNMeN = CN[C@H](CC(N)=O)C(=O)O", "data": [{"compound": "myxomapeptin B [Compound 2]", "values": [{"measurement": "pIC50", "setting": "PMP501-1 cells [1]", "value": 4.64}, {"measurement": "pIC50", "setting": "ABX023-1 cells [2]", "value": 4.47}, {"measurement": "pIC50", "setting": "[3]", "value": "< 4.00"}, {"measurement": "pIC50", "setting": "[4]", "value": "< 4.00"}, {"measurement": "mitochondrial respiration (normalized OCR and ECAR)", "setting": "PMP501-1 cells [5]", "value": "strongly inhibits"}, {"measurement": "mitochondrial respiration (normalized OCR and ECAR)", "setting": "FHC cells [6]", "value": "not observed"}, {"measurement": "ratio of compound in cell lysis versus control extracts", "setting": "PMP501-1 cells [7]", "value": 18.9, "unit": "%"}, {"measurement": "percentage of 2 found in cell lysate", "setting": "PMP501-1 cells [7]; PMP501-1 co-cultured with PMP498-3 bacteria", "value": 22.5, "unit": "%"}, {"measurement": "ratio of compound in cell lysis versus control extracts", "setting": "ABX023-1 cells [8]", "value": 26.7, "unit": "%"}, {"measurement": "percentage of 2 found in cell lysate", "setting": "ABX023-1 cells [8]; ABX023-1 co-cultured with PMP498-3 bacteria", "value": 30.2, "unit": "%"}, {"measurement": "ratio of compound in cell lysis versus control extracts", "setting": "HT-29 cells [9]", "value": 6.1, "unit": "%"}, {"measurement": "ratio of compound in cell lysis versus control extracts", "setting": "FHC cells [10]", "value": 4.1, "unit": "%"}, {"measurement": "antimicrobial activity", "setting": "[11]", "value": "no antimicrobial activity"}]}, {"compound": "neopeptin", "values": [{"measurement": "antibacterial and antifungal activities", "setting": "[12]", "value": "reported to possess antibacterial and antifungal activities"}]}, {"compound": "O=c1[nH]cc(F)c(=O)[nH]1", "note": "[Compound 5-FU, 5-fluorouracil]", "values": [{"measurement": "mitochondrial respiration (normalized OCR and ECAR)", "setting": "PMP501-1 cells [5]", "value": "unselectively inhibited"}, {"measurement": "mitochondrial respiration (normalized OCR and ECAR)", "setting": "FHC cells [6]", "value": "unselectively inhibited"}]}, {"compound": "CCCCCCCCCC(=O)N[C@@H](Cc1c[nH]c2ccccc12)C(=O)N[C@H](CC(N)=O)C(=O)N[C@@H](CC(=O)O)C(=O)N[C@@H]1C(=O)NCC(=O)N[C@@H](CCCN)C(=O)N[C@@H](CC(=O)O)C(=O)N[C@H](C)C(=O)N[C@@H](CC(=O)O)C(=O)NCC(=O)N[C@H](CO)C(=O)N[C@@H]([C@H](C)CC(=O)O)C(=O)N[C@@H](CC(=O)c2ccccc2N)C(=O)O[C@@H]1C", "note": "[daptomycin]", "values": [{"measurement": "ratio of compound in cell lysis versus control extracts", "setting": "PMP501-1 cells [7]", "value": "cannot be detected"}, {"measurement": "ratio of compound in cell lysis versus control extracts", "setting": "ABX023-1 cells [8]", "value": "cannot be detected"}, {"measurement": "ratio of compound in cell lysis versus control extracts", "setting": "HT-29 cells [9]", "value": "cannot be detected"}, {"measurement": "ratio of compound in cell lysis versus control extracts", "setting": "FHC cells [10]", "value": "cannot be detected"}]}, {"compound": "O=C(O)/C=C/c1ccc(O)cc1", "note": "[Compound 3, p-coumaric acid]", "values": [{"measurement": "stimulation of proliferation", "setting": "PMP501-1 cells [1]", "value": "~20", "unit": "%"}, {"measurement": "stimulation of proliferation", "setting": "ABX023-1 cells [2]", "value": "~20", "unit": "%"}, {"measurement": "effect on proliferation", "setting": "[3]", "value": "no effect"}, {"measurement": "effect on proliferation", "setting": "[4]", "value": "no effect"}, {"measurement": "stimulatory effect on oxygen consumption", "setting": "FHC cells [6]", "value": "no substantial stimulatory effect"}, {"measurement": "increase of maximum respiratory capacity", "setting": "ABX023-1 cells [13]", "value": 25, "unit": "%"}, {"measurement": "stimulatory effect on oxygen consumption", "setting": "HT-29 cells [14]", "value": "no substantial stimulatory effect"}]}, {"compound": "myxomapeptin A [Compound 1]", "values": [{"measurement": "antimicrobial activity", "setting": "[11]", "value": "no antimicrobial activity"}]}, {"compound": "N[C@@H](Cc1ccc(O)cc1)C(=O)O", "note": "[Compound 4, L-tyrosine]", "values": [{"measurement": "stimulation of proliferation", "setting": "PMP501-1 cells [1]", "value": "no discernible effect"}, {"measurement": "stimulation of proliferation", "setting": "ABX023-1 cells [2]", "value": "no discernible effect"}, {"measurement": "effect on proliferation", "setting": "[3]", "value": "no discernible effect"}, {"measurement": "effect on proliferation", "setting": "[4]", "value": "no discernible effect"}, {"measurement": "increase of maximum respiratory capacity", "setting": "ABX023-1 cells [13]", "value": "do not have any effect"}]}, {"compound": "CC[C@@H](C)CCCCCCCCCCC(=O)N[C@H]1C(=O)N[C@@H](CC(=O)O)C(=O)N[C@H](CO)C(=O)N[C@@H](CO)C(=O)N(C)[C@H](CC(N)=O)C(=O)N(C)[C@@H](Cc2ccccc2)C(=O)N[C@H]([C@H](O)CC(N)=O)C(=O)N[C@H](CCC(=O)O)C(=O)O[C@@H]1C", "note": "[Lipopeptin A, lipopeptin A] (X1-[d(aThr)]D[dS]S[dNMeN][NMeF][X2][dE]; ester 1-C)", "values": [{"measurement": "antibacterial and antifungal activities", "setting": "[12]", "value": "reported to possess antibacterial and antifungal activities"}]}]}
